In the test the test system is Rattus norvegicus. Nature of the test: Compound was tested in ratsdeficient in vitamin D at a dose of 125 ug/kg i.v.; NE denotes no effect was observed on bone calcium mobilization (BCM) and intestinal calcium absorption (ICA). It is filed as functional, organism-based.

From ChEMBL document CHEMBL1150472, “Synthesis and immunoregulating activity of vitamin D analogues bearing pregnane side chains” (Bioorg Med Chem Lett, 1992) come the findings set out here.

SMILES strings stand for the structures.

Turning to `C=C1/C(=C\C=C2/CCC[C@@]3(C)C2CC[C@@H]3C(C)=O)CC(O)C[C@@H]1O` (stereo partly specified), the Activity entry was “No effect”.
